How the values were obtained:
skin of nude adult mice = assay: Dermal capillary vessel diameters, mouse skin; assay type: in vivo; conditions: topically applied
Method: Creams containing 5% and 2.5% w/w idebenone (IDB) in a neutral phase were prepared. Said creams and a cream having an identical formulation but without idebenone were applied on nude adult mice with 3 months of age. The cream with idebenone was applied on the right half of the body of the animals and the control cream on the left half according to the scheme detailed below. The animals were sacrificed 1, 2, 3 or 4 hours after applying the cream (p.a.). • Batch A: animal treated with 5% IDB (1 hour p.a.) • Batch B: animal treated with 2.5% IDB (1 hour p.a.) • Batch C: animal treated with 5% IDB (2 hours p.a.) • Batch D: animal treated with 2.5% IDB (2 hours p.a.) • Batch E: animal treated with 5% IDB (3 hours p.a.) • Batch F: animal treated with 2.5% IDB (3 hours p.a.) • Batch G: animal treated with 5% IDB (4 hours p.a.) • Batch H: animal treated with 2.5% IDB (4 hours p.a.)
Morphological and morphometric studies: Thickness of the epidermis, the horny layer, the papillary dermis and reticular dermis was measured in at least 10 different points, the result being expressed as the average of the 10 measurements. Capillary vessel diameter was also measured in at least 10 points, expressing them by means of their average. The measurements were carried out using a Quantimet 500+ (Leica) image processing equipment. […]

SK-MEL-28 [1] = assay: Melanin content determination (OD400) in SK-MEL cells; assay type: cell-based, human
Method: In vitro determinations were performed following the method devised by Dooley et al. (Skin Pharmacol. 1994; 7:188-200) in order to evaluate the capacity of idebenone to inhibit melanogenesis, according to the process described below:
Cells: The study was carried out using a cell line derived from human melanoma, provided by ABAC (Asociación Banco Argentino de Células—Cell Bank of Argentina), with melanin synthesis capability (SK-MEL-28, ATCC origin). The cells were grown in plastic culture bottles or in 24-well plastic dishes in a modified Eagle medium (DMEM) supplemented with 10% fetal bovine serum (FBS) and were maintained at 37° C. in a 5% CO2 atmosphere.
Study of in vitro compounds: SK-MEL cells detached with trypsin were seeded on plastic 24-well dishes (density of 1×10^5 cells per well) and incubated for 24 hours in modified Eagle medium (DMEM) supplemented with 10% fetal bovine serum (FBS) prior to treating with the compound to be evaluated. After 24 hours have lapsed, the medium was replaced with 990 μl of fresh medium. 10 μl of sterile vehicle (50% propylene glycol, 30% ethanol and 20% distilled water) containing different concentrations of the compounds to be evaluated were added to this fresh medium.
Decimal dilutions of each compound in the sterile vehicle were prepared in order to obtain final concentrations of the compound to be studied ranging between 1.000 and 0.01 μg/ml. […]
[…] The cells were thus continuously exposed to the compounds under study for the 5 days the culture lasted. All the concentrations of the compounds were studied in triplicate, comparing the mean of the 3 wells treated with the compounds with those treated with the vehicle alone.
Melanin content determination: The SK-MEL cell melanin content was determined after stirring the culture medium and washing the cells with PBS. The cells were then lysated by means of adding 1 ml of 1N NaOH to each well and repeated manual pipetting. The raw cell extract was analyzed using a spectrophotometer at 400 and 475 nm to determine the melanin and dopaquinone content, respectively. The results were expressed as a percentage of the cell cultures treated with the vehicle.

SK-MEL-28 [2] = assay: Cytopathic effects on cell cultures, inverted microscope; assay type: cell-based, human
Method: An experiment similar to the one described in the previous example was designed for the purpose of establishing whether idebenone inhibits melanogenesis in cells in culture, but in this case the cells were treated for only 1 day, whereas the results were evaluated on the third day.
An experiment similar to the one described in the previous example was designed for the purpose of establishing whether idebenone inhibits melanogenesis in cells in culture, but in this case the cells were treated for 2 days and the results were evaluated on the fourth day.
An experiment similar to the one described in the previous example was designed for the purpose of establishing whether idebenone inhibits melanogenesis in cells in culture, but in this case the cells were treated for 5 days and the results were evaluated on the fifth day.

[3] = Arzneim. Forsch/drug res. 35 (II), 11, pp. 1704, 1985; cited from earlier work
[4] = Example 9 (similar to Example 6), dilution −2
[5] = Example 9 (similar to Example 6), dilution −3
[6] = Example 9 (similar to Example 6), dilution −4
[7] = Example 9 (similar to Example 6), dilution −5
[8] = Example 9 (similar to Example 6), dilution −6
[9] = Example 9 (similar to Example 6), dilution −7
[10] = Example 9 (similar to Example 6), dilution −8
[11] = dilution −1, treated daily 3 days, assayed day 5
[12] = dilution −2, treated 1 day, evaluated third day
[13] = dilution −2, treated daily 3 days, assayed day 5
[14] = dilution −3, treated 1 day, evaluated third day
[15] = dilution −3, treated daily 3 days, assayed day 5
[16] = dilution −4, treated 1 day, evaluated third day
[17] = dilution −4, treated 2 days, evaluated fourth day
[18] = dilution −4, treated daily 3 days, assayed day 5
[19] = dilution −5, treated 1 day, evaluated third day
[20] = dilution −5, treated 2 days, evaluated fourth day
[21] = dilution −5, treated daily 3 days, assayed day 5
[22] = dilution −6, treated 1 day, evaluated third day
[23] = dilution −6, treated 2 days, evaluated fourth day

With `COC1=C(OC)C(=O)C(CCCCCCCCCCO)=C(C)C1=O` [idebenone, 6-(10-hydroxydecyl)-2,3-dimethoxy-5-methyl-1,4-benzoquinone] the “Effect on microcirculation vascular diameters” value (skin of nude adult mice) was “does not substantially modify microcirculation vascular diameters”, the “OD400 (melanin)” value (SK-MEL-28 [1]; [4]) was 0.01166 and the “OD400 Percentage (melanin)” value (SK-MEL-28 [1]; [4]) was 71.40%. The “OD400 (melanin)” value (SK-MEL-28 [1]; [5]) was 0.01566, the “OD400 Percentage (melanin)” value (SK-MEL-28 [1]; [5]) was 95.89% and the “OD400 (melanin)” value (SK-MEL-28 [1]; [6]) was 0.01533. For the same molecule, the “OD400 Percentage (melanin)” value (SK-MEL-28 [1]; [6]) was 93.87%, the “OD400 (melanin)” value (SK-MEL-28 [1]; [7]) was 0.01466 and the “OD400 Percentage (melanin)” value (SK-MEL-28 [1]; [7]) was 89.77%. The “OD400 (melanin)” value (SK-MEL-28 [1]; [8]) was 0.009, the “OD400 Percentage (melanin)” value (SK-MEL-28 [1]; [8]) was 55.11% and the “OD400 (melanin)” value (SK-MEL-28 [1]; [9]) was 0.01166. For the same molecule, the “OD400 Percentage (melanin)” value (SK-MEL-28 [1]; [9]) was 71.40%, the “OD400 (melanin)” value (SK-MEL-28 [1]; [10]) was 0.01166 and the “OD400 Percentage (melanin)” value (SK-MEL-28 [1]; [10]) was 71.40%. The Melanin synthesis inhibition (SK-MEL-28 [1]; SK-MEL-28, Example 5) was “inhibits melanin synthesis in a dose-dependent manner”, the “OD400 (melanin)” value (SK-MEL-28 [1]; [11]) was 0.0156 and the “OD400 expressed as percentage of control (melanin)” value (“OD400 expressed as percentage” for short) (SK-MEL-28 [1]; [11]) was 28%. The “OD400 (melanin)” value (SK-MEL-28 [1]; [12]) was 0.0040, the “OD400 Percentage (melanin)” value (SK-MEL-28 [1]; [12]) was 14.65% and the “OD400 (melanin)” value (SK-MEL-28 [1]; [13]) was 0.0140. For the same molecule, the “OD400 expressed as percentage” value (SK-MEL-28 [1]; [13]) was 40%, the “OD400 (melanin)” value (SK-MEL-28 [1]; [14]) was 0.0133 and the “OD400 Percentage (melanin)” value (SK-MEL-28 [1]; [14]) was 48.72%. The “OD400 (melanin)” value (SK-MEL-28 [1]; [15]) was 0.0123, the “OD400 expressed as percentage” value (SK-MEL-28 [1]; [15]) was 52% and the “OD400 (melanin)” value (SK-MEL-28 [1]; [16]) was 0.0243. For the same molecule, the “OD400 Percentage (melanin)” value (SK-MEL-28 [1]; [16]) was 89.01%, the “OD400 (melanin)” value (SK-MEL-28 [1]; [17]) was 0.0613 and the “OD400 Percentage (melanin)” value (SK-MEL-28 [1]; [17]) was 112.89%. For the same molecule, the “OD400 (melanin)” value (SK-MEL-28 [1]; [18]) was 0.0096, the “OD400 expressed as percentage” value (SK-MEL-28 [1]; [18]) was 59% and the “OD400 (melanin)” value (SK-MEL-28 [1]; dilution −4, treated for 3 days, evaluated fifth day) was 0.0686. The “OD400 Percentage (melanin)” value (SK-MEL-28 [1]; dilution −4, treated for 5 days (heading: 3 days), evaluated fifth day) was 77.69%, the “OD400 (melanin)” value (SK-MEL-28 [1]; [19]) was 0.0343 and the “OD400 Percentage (melanin)” value (SK-MEL-28 [1]; [19]) was 125.64%. For the same molecule, the “OD400 (melanin)” value (SK-MEL-28 [1]; [20]) was 0.0626, the “OD400 Percentage (melanin)” value (SK-MEL-28 [1]; [20]) was 115.28% and the “OD400 (melanin)” value (SK-MEL-28 [1]; [21]) was 0.0066. For the same molecule, the “OD400 expressed as percentage” value (SK-MEL-28 [1]; [21]) was 66%, the “OD400 (melanin)” value (SK-MEL-28 [1]; dilution −5, treated for 3 days, evaluated fifth day) was 0.0742 and the “OD400 Percentage (melanin)” value (SK-MEL-28 [1]; dilution −5, treated for 5 days (heading: 3 days), evaluated fifth day) was 84.03%. The “OD400 (melanin)” value (SK-MEL-28 [1]; [22]) was 0.0313, the “OD400 Percentage (melanin)” value (SK-MEL-28 [1]; [22]) was 114.65% and the “OD400 (melanin)” value (SK-MEL-28 [1]; [23]) was 0.0396. For the same molecule, the “OD400 Percentage (melanin)” value (SK-MEL-28 [1]; [23]) was 72.92%, the “OD400 (melanin)” value (SK-MEL-28 [1]; dilution −6, treated for 3 days, evaluated fifth day) was 0.0801 and the “OD400 Percentage (melanin)” value (SK-MEL-28 [1]; dilution −6, treated for 5 days (heading: 3 days), evaluated fifth day) was 90.71%. For the same molecule, the “Melanogenesis inhibition at high dilutions” value (SK-MEL-28 [1]; −2 to −8 dilutions) was “preserves its ability to inhibit melanogenesis”, the Cytopathic effects (SK-MEL-28 [2]; remaining dilutions (−2 to −6), treated 1 day) was “no cytopathic effect whatsoever” and the Cytopathic effects (SK-MEL-28 [2]; −1 dilution, treated 1 day) was “cytopathic effects”. The Cytopathic effects (SK-MEL-28 [2]; −4, −5 and −6 dilutions, Example 8) was “No cytopathic effect was observed”, the Cytopathic effects (SK-MEL-28 [2]; −4, −5 and −6 dilutions, treated 2 days) was “No cytopathic effect was observed” and the Toxic effects reported [3] was “no significant toxic effects have been reported”.

From US20090060851A1, “USE OF IDEBENONE FOR THE PREPARATION OF A TOPICALLY-APPLIED DEPIGMENTATION COMPOSITION AND CORRESPONDING COMPOSITION” (priority 2005, published 2009)
